Key:
Type in all cases: cell-based
[1] = Inhibition of Smo-mediated hedgehog signaling pathway in mouse C3H10T1/2 cells after 6 days by Gli-dependent luciferase reporter gene assay; settings: C3H 10T1/2, 144 h
[2] = Inhibition of Smo-mediated hedgehog signaling pathway in mouse Light2 cells in Shh conditioned medium after 48 hrs by Gli-Renilla luciferase reporter gene assay
[3] = Inhibition of hedgehog signaling pathway in mouse Light2 cells in Shh-N conditioned medium after 24 hrs by dual luciferase reporter gene assay
[4] = Inhibition of hedgehog signaling pathway in mouse Light2 cells in Shh conditioned medium assessed as reduction in GLI1 expression by Western blot analysis
[5] = Inhibition of hedgehog signaling pathway in mouse Light2 cells in Shh conditioned medium assessed as reduction in GLI2 expression by Western blot analysis

Row | Compound | IC50 [1] [nM] | IC50 [2] [nM] | also measured
1 | Cc1ccc(Cn2ncc3nc(-c4ccc(N5CCN(C(=O)CCc6c[nH]c7ccccc67)CC5)cc4)[nH]c32)cc1 |  | 1400 | 
2 | CC[C@@H](C)C(=O)O[C@@H](C)[C@]1(O)CC[C@@]2(O)[C@]1(C)[C@H](OC(=O)/C=C/c1ccccc1)C[C@@H]1[C@@]3(C)CC[C@H](O)CC3=CC[C@]12O |  |  | IC50 [3]: 3700 nM
3 | CC[C@H](C)C(=O)O[C@@H](C)[C@]1(O)CC[C@@]2(O)[C@]1(C)[C@H](OC(=O)/C=C/c1ccccc1)C[C@@H]1[C@@]3(C)CC[C@H](O)CC3=CC[C@]12O |  |  | IC50 [3]: 2900 nM
4 | CCC(C)n1ncn(-c2ccc(N3CCN(c4ccc(OCC5COC(Cn6cncn6)(c6ccc(Cl)cc6Cl)O5)cc4)CC3)cc2)c1=O (stereo not given) [ITRACONAZOLE] |  | 690 | 
5 | C[C@@H]1CC[C@@]2(NC1)O[C@H]1C[C@H]3[C@@H]4CC=C5C[C@@H](O[C@@H]6O[C@H](CO)[C@H](O)[C@H](O[C@@H]7O[C@H](CO)[C@@H](O)[C@H](O)[C@H]7O)[C@H]6O[C@@H]6O[C@@H](C)[C@H](O)[C@@H](O)[C@H]6O)CC[C@]5(C)[C@H]4CC[C@]3(C)[C@H]1[C@@H]2C [SOLASONINE] |  |  | IC50 [4]: 2490 nM; IC50 [5]: 2300 nM

Second part, led by results:

Row | IC50 [1] [nM] | IC50 [2] [nM] | Compound | also measured
6 | 650 |  | COc1cc(C(=O)NC(=S)Nc2cccc(NC(=O)c3ccccc3)c2)cc(OC)c1OC | 
7 | 15 |  | COc1cc(C(=O)NC(=N)Nc2ccc(C)c(NC(=O)c3ccc(-c4ccccc4)cc3)c2)cc(OC)c1OC | 
8 |  | 4440 | COc1ccc(/C=C/C(=O)c2cc(OC)c(OC)cc2OC)cc1OC | 
9 | 2.8 |  | COc1cc(C(=O)NC(=N)Nc2ccc(C)c(NC(=O)c3ccc(CCc4ccccc4)cc3)c2)cc(OC)c1OC | 
